Results on 2 molecules are retold here after ChEMBL document CHEMBL1154784, “Discovery of potential ZAP-70 kinase inhibitors: pharmacophore design, database screening and docking studies” (Eur J Med Chem, 2009).

This test addresses T1, Tyrosine-protein kinase ZAP-70 (Homo sapiens, UniProt P43403).
T1 sequence (P43403 whole entry): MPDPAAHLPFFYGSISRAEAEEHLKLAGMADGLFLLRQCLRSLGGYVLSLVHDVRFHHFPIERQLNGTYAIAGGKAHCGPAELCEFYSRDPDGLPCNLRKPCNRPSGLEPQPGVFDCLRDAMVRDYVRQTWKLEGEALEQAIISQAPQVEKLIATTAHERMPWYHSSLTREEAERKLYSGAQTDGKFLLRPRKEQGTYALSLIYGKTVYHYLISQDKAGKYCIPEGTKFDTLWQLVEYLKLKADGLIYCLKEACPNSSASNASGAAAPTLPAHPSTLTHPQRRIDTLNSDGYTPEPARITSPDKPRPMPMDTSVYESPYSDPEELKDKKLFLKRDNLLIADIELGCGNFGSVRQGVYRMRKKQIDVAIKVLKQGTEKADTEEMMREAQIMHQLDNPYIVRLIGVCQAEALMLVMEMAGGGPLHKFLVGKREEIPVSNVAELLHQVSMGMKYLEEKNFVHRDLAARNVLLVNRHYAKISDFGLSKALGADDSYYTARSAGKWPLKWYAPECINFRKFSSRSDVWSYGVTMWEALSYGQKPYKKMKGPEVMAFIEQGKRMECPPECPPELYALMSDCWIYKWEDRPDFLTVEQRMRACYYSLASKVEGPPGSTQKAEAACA
Briefly: Inhibition of human GST-fused ZAP-70 expressed in Sf9 cells.

pIC50: −log10 of the molar value.

One may read the pIC50 as the negative decadic logarithm of the IC50, by convention in mol/L. A lower pIC50 goes with a large IC50. Regarding `Cc1c(CCC(=O)O)c[nH]c1/C=C1\C(=O)Nc2ccccc21`, the pIC50 was 4.60. As for `Cc1[nH]c(/C=C2\C(=O)Nc3ccccc32)c(C)c1CCC(=O)O` [ORANTINIB], the figure is 4.55.
